From ChEMBL document CHEMBL1201862, “PubChem BioAssay data set” (2004) come the findings set out here.

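Five concentrations, 48 hours, 96-well plates. At the GI50, growth is halved.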 Activity calls are given as the source filed them. No stated cut-off is given here; in the data, active = GI50 up to about 1.1 µM and inactive = higher.

Test systems include 786-0; CAKI-1; DU-145; EKVX; HCC 2998; IGROV-1; KM12; LOX IMVI; M14; MDA-MB-435; OVCAR-8; RPMI-8226; SF-268; SF-539; SK-MEL-5; SNB-19; U-251; UACC-257; UO-31.
Assay in all cases: growth of human tumour cells (NCI), 48 h

`Cc1cc2nc3ccccc3n2c2ccccc12`: the GI50 in the test with 786-0 was > 10 µM (inactive); with CAKI-1, > 10 µM (inactive); with DU-145, > 10 µM (inactive); in the test with EKVX, 1.81 µM (inactive); with HCC 2998, > 10 µM (inactive); with IGROV-1, > 10 µM (inactive). Also, the GI50 with KM12, with LOX IMVI, in the test with M14, with MDA-MB-435, in the test on OVCAR-8 and with RPMI-8226 was > 10 µM (inactive) each time. The GI50 with SF-268, in the test on SF-539, in the test on SK-MEL-5, in the test on SNB-19, in the test on U-251 and in the test on UACC-257 was > 10 µM (inactive) each time.

Regarding `CN(C)c1c(C2OC(CO)C(O)C2O)c(=O)c1=O` (centres undefined), the GI50 in the test with 786-0, with CAKI-1, in the test with DU-145, in the test on EKVX, with HCC 2998 and in the test with IGROV-1 was > 100 µM (inactive) in each case. Also, the GI50 in the test with KM12, in the test with LOX IMVI, in the test with M14, in the test with MDA-MB-435, in the test on OVCAR-8 and in the test with RPMI-8226 was > 100 µM (inactive) in each case. Besides, the GI50 with SF-268 was > 100 µM (inactive); with SF-539, < 0.01 µM (active); with SNB-19, > 100 µM (inactive); in the test with U-251, > 100 µM (inactive); in the test on UACC-257 it was > 100 µM (inactive); with UO-31, > 100 µM (inactive).

Consider `COc1cccc(N2C(=O)C3c4[nH]c5ccc(C)cc5c4C4CCC(C)CC4C3C2=O)c1` (centres undefined), for which the GI50 was 26.5 µM (inactive) with 786-0; 39.5 µM (inactive) in the test with CAKI-1; > 100 µM (inactive) in the test on DU-145; 32.6 µM (inactive) with EKVX; > 100 µM (inactive) in the test on HCC 2998; 89.5 µM (inactive) in the test with IGROV-1. Also, the GI50 is > 100 µM (inactive) in the test with LOX IMVI; > 100 µM (inactive) in the test on M14; > 100 µM (inactive) in the test on MDA-MB-435; > 100 µM (inactive) with OVCAR-8; > 100 µM (inactive) with RPMI-8226; 47.2 µM (inactive) in the test on SF-268. In addition, the GI50 is 57.5 µM (inactive) in the test with SF-539; > 100 µM (inactive) in the test with SK-MEL-5; 73.3 µM (inactive) with SNB-19; 51.3 µM (inactive) in the test with U-251; > 100 µM (inactive) with UACC-257; > 100 µM (inactive) in the test with UO-31.

For `O=c1oc2c(Br)c(O)c(Br)cc2c2ccccc12`, the GI50 with 786-0 was 42.1 µM (inactive); in the test on CAKI-1 it was 16 µM (inactive); with DU-145, 29.3 µM (inactive); with EKVX, 23.2 µM (inactive); with HCC 2998, 33.3 µM (inactive); in the test with IGROV-1, 30.6 µM (inactive). Also, the GI50 in the test with LOX IMVI was 23.8 µM (inactive); with M14, 31.9 µM (inactive); in the test with MDA-MB-435, 36.6 µM (inactive); in the test on OVCAR-8, 33.6 µM (inactive); with RPMI-8226, 27 µM (inactive); in the test with SF-268 it was 20.8 µM (inactive). For the same molecule, the GI50 in the test with SF-539 is 23.9 µM (inactive); in the test on SK-MEL-5, 24.5 µM (inactive); in the test with SNB-19, 30.3 µM (inactive); in the test with U-251, 32.1 µM (inactive); in the test with UACC-257, 18 µM (inactive).

With `[N-]=[N+]=Nc1c(Cl)c(=O)n(-c2ccccc2)c2ccccc12`, the GI50 with 786-0 was 18.3 µM (inactive); in the test on CAKI-1, 21.7 µM (inactive); with DU-145 it was 29.2 µM (inactive); with HCC 2998 it was 21.7 µM (inactive); in the test on IGROV-1 it was 15.6 µM (inactive); with KM12, 39.5 µM (inactive). Besides, the GI50 in the test on LOX IMVI was 14.9 µM (inactive); with M14 it was 16.6 µM (inactive); in the test with MDA-MB-435 it was 19.1 µM (inactive); in the test with RPMI-8226 it was 34 µM (inactive); in the test on SF-268 it was 19.8 µM (inactive); in the test with SF-539 it was 22.3 µM (inactive). Besides, the GI50 with SK-MEL-5 was 3.15 µM (inactive); with SNB-19, 28.9 µM (inactive); in the test with U-251, > 10 µM (inactive); in the test with UACC-257 it was 24.2 µM (inactive); in the test with UO-31, 23.9 µM (inactive).

As to `COC1=C(Br)[C@H](O)[C@@]2(C=C1Br)CC(C(=O)NCCCCCNC(=N)N)=NO2` [APLYSINAMISINE II], the GI50 with 786-0, in the test with DU-145, in the test on HCC 2998, with IGROV-1, in the test on KM12 and in the test on LOX IMVI was > 10 µM (inactive) each time. Further, the GI50 in the test on M14, with MDA-MB-435, in the test on OVCAR-8, in the test with RPMI-8226, with SF-268 and in the test with SF-539 was > 10 µM (inactive) throughout. Also, the GI50 with SK-MEL-5, with SNB-19, in the test on U-251, in the test with UACC-257 and in the test on UO-31 was > 10 µM (inactive) in each case.

On to `CC(NC(=O)Cc1ccc(OP(=O)(OCc2ccc([N+](=O)[O-])o2)N(C)CCCCCl)cc1)c1ccc(OCC2CCCCC2)c(C(N)=O)c1` (centres undefined), for which the GI50 in the test with 786-0 was 2.92 µM (inactive); in the test with CAKI-1, 2.91 µM (inactive); in the test on DU-145, 2.8 µM (inactive); in the test with HCC 2998, 1.35 µM (inactive); with IGROV-1, 1.91 µM (inactive); in the test on KM12, 2.4 µM (inactive). Moreover, the GI50 is 1.74 µM (inactive) in the test on LOX IMVI; 2.12 µM (inactive) in the test on M14; 1.89 µM (inactive) in the test on MDA-MB-435; 3.6 µM (inactive) with OVCAR-8; 0.574 µM (active) with RPMI-8226; 2.22 µM (inactive) with SF-268. In addition, the GI50 is 2.02 µM (inactive) in the test on SF-539; 1.6 µM (inactive) in the test on SK-MEL-5; 3.3 µM (inactive) in the test with SNB-19; 2.14 µM (inactive) with U-251; 1.67 µM (inactive) in the test on UACC-257; 2.58 µM (inactive) in the test with UO-31.

With `COc1nc2ccc(CNc3ccc(C(=O)O)cc3)cc2nc1OC`, the GI50 in the test with 786-0, in the test on CAKI-1, in the test on DU-145, with EKVX, in the test with HCC 2998 and in the test on IGROV-1 was > 10 µM (inactive) throughout. Further, the GI50 with KM12, in the test on LOX IMVI, in the test with M14, in the test with MDA-MB-435, in the test with OVCAR-8 and in the test with RPMI-8226 was > 10 µM (inactive) throughout. Further, the GI50 with SF-268, in the test with SF-539, in the test on SK-MEL-5, in the test with SNB-19, with U-251 and in the test with UACC-257 was > 10 µM (inactive) throughout.

On to `O=C1C=CC(=O)N1n1c(Cc2ccccc2)n[nH]c1=O`, for which the GI50 in the test with 786-0, in the test on CAKI-1, in the test with DU-145, with EKVX, with HCC 2998 and with IGROV-1 was > 100 µM (inactive) throughout. Also, the GI50 with KM12, in the test on LOX IMVI, with MDA-MB-435, with OVCAR-8, in the test with RPMI-8226 and in the test on SF-268 was > 100 µM (inactive) throughout. Further, the GI50 in the test on SF-539, in the test with SK-MEL-5, in the test with SNB-19, in the test on U-251, in the test on UACC-257 and in the test with UO-31 was > 100 µM (inactive) throughout.

With `CCN(CCCN(CC)C(=O)Nc1c(C)cccc1C)C(=O)Nc1c(C)cccc1C`, the GI50 in the test on 786-0, with CAKI-1, in the test with DU-145, in the test with EKVX, in the test on HCC 2998 and in the test with IGROV-1 was > 100 µM (inactive) in each case. The GI50 in the test with KM12, in the test with LOX IMVI, with M14, in the test on MDA-MB-435, with OVCAR-8 and with RPMI-8226 was > 100 µM (inactive) throughout. For the same molecule, the GI50 in the test on SF-268 is > 100 µM (inactive); with SK-MEL-5, > 100 µM (inactive); in the test on SNB-19, > 100 µM (inactive); in the test on U-251 it was > 100 µM (inactive); in the test on UACC-257 it was > 100 µM (inactive); in the test with UO-31, 92.3 µM (inactive).

For `OCC1OC(NC(=S)NCCC(F)(F)C(F)(F)C(F)(F)C(F)(F)C(F)(F)C(F)(F)F)C(O)C(O)C1O` (centres undefined), the GI50 in the test on 786-0 is > 100 µM (inactive); with CAKI-1, > 100 µM (inactive); in the test with DU-145, > 100 µM (inactive); in the test on HCC 2998 it was > 100 µM (inactive); with IGROV-1 it was 65.9 µM (inactive); in the test on KM12, > 100 µM (inactive). The GI50 in the test on LOX IMVI is 49.5 µM (inactive); with M14 it was 56.4 µM (inactive); with MDA-MB-435, 58.6 µM (inactive); with RPMI-8226 it was > 100 µM (inactive); in the test on SF-268 it was > 100 µM (inactive); in the test with SF-539, > 100 µM (inactive). In addition, the GI50 is 35.6 µM (inactive) in the test with SK-MEL-5; 69.8 µM (inactive) with SNB-19; 37.3 µM (inactive) in the test on U-251; 54.7 µM (inactive) with UACC-257; > 100 µM (inactive) in the test on UO-31.
